The source of these data is ChEMBL document CHEMBL6096711, “Discovery of Novel Pyrimidine Derivatives as Human Pin1 Covalent Inhibitors” (ACS Med Chem Lett, 2025).

Where a SMILES comes first, the peptide text is derived from it. [ ]: non-standard residue; d: D form. The star is where a group is joined. NMeF = CN[C@@H](Cc1ccccc1)C(=O)O; Pip = O=C(O)[C@@H]1CCCCN1; ClAc = O=C(CCl)*

Data set [1] deals with HCT-116. The data set is described as follows: cells. As to conditions: Homo sapiens, HCT-116, 96 h.
Description: Antitumor activity against human HCT-116 cells assessed as inhibition of cell growth measured after 96 hrs by MTT assay
Data set [2] has as its target T1, Peptidyl-prolyl cis-trans isomerase NIMA-interacting 1 (Homo sapiens, UniProt Q13526). The data set is described as follows: Inhibition of human Pin1 extracted from Escherichia coli BL21 (DE3) cells using TAMRA labelled Bth-(D-Thr(PO3H2))-Pip-Nal-NH2 peptide probe as substrate by fluorescence polarization assay. (Polarisation of emitted light reports the rotation of a fluorescent probe.)

Data set [3] concerns MCF7. As to the kind of experiment: cells. As to conditions: Homo sapiens, MCF7, 96 h.
Description: Antitumor activity against human MCF7 cells assessed as inhibition of cell growth measured after 96 hrs by MTT assay
Data set [4] concerns the target T1, Peptidyl-prolyl cis-trans isomerase NIMA-interacting 1. As to the kind of experiment: Inhibition of human Pin1 using Suc-Ala-Glu-Pro-Phe04-nitroanilide as peptide substrate preincubated for 14 hrs followed by substrate addition and measured immediately by chymotrypsin-coupled PPIase assay.
The nature of data set [5]: Stability in mouse liver microsomes assessed as half life. Format: ADME, Microsome. A general note: Liver microsomes are a subcellular fraction often used to study metabolism.

T1 sequence (Q13526 whole entry): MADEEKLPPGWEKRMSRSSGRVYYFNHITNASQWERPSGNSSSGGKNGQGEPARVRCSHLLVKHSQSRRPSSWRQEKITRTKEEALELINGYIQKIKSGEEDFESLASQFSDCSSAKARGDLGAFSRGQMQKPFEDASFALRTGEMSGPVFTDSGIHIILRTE

The term IC50 denotes the concentration needed to halve the response being measured. Higher therefore signals a need for much substance. With `CC(C)(C)CN(C(=O)CCl)C1CCS(=O)(=O)C1` (configuration not stated), the IC50 was 7.54 µM in data set [1], 0.12 µM in data set [2], more than 100 µM in data set [3] and 0.12 µM in data set [4]. On to `O=[N+]([O-])c1cnc(Cl)nc1N(Cc1ccc(-c2ccc3ccccc3c2)s1)C1CCS(=O)(=O)C1` (configuration not stated), for which the values for the IC50 in data set [1] and in data set [3] were 3.35 µM and 4.95 µM, respectively. Take `O=[N+]([O-])c1cnc(Cl)nc1N(Cc1cccc2ccccc12)C1CCS(=O)(=O)C1` (configuration not stated): the IC50 in data set [1] is 5.04 µM; in data set [3] it was more than 100 µM. In the case of `O=[N+]([O-])c1cnc(N(Cc2coc3ccccc23)C2CCS(=O)(=O)C2)nc1Cl` (configuration not stated), the IC50 in data set [1] was more than 100 µM; in data set [3], 5.26 µM. Turning to `O=S1(=O)CCC(Nc2nc(Cl)nc(Cl)n2)C1` (configuration not stated), it took 144 µM to reach half-maximal inhibition in data set [2] (IC50).

As to `O=[N+]([O-])c1cnc(Cl)nc1N(Cc1ccc(-c2cccc3ccoc23)s1)C1CCS(=O)(=O)C1` (configuration not stated), the results for the IC50 in data set [1] and in data set [3] were 2.6 µM and 4.24 µM, respectively.

Consider `O=[N+]([O-])c1cnc(N(Cc2ccc3ccccc3c2)C2CCS(=O)(=O)C2)nc1Cl` (configuration not stated), for which the concentration for half-maximal inhibition (IC50) in data set [1] was more than 100 µM; in data set [3] it was 3.94 µM. `O=[N+]([O-])c1cnc(Cl)nc1N(CC1CCCCC1)C1CCS(=O)(=O)C1` (configuration not stated) yielded an IC50 in data set [2] of 101 µM. The half-life is how long it takes for the measured level to halve. With `CCOC(=O)[C@H](CCCNC(=N)N)NC(=O)[C@H](Cc1c[nH]c2ccccc12)NC(=O)[C@@H]1CCCCN1C(=O)[C@H](Cc1ccccc1)N(C)C(=O)CCl` (ClAc-[NMeF][Pip]WR-OEt), in data set [5], the half-life was 1.2 min.
